Data set [1] is described as follows: Pharmacokinetics of VCD stereoisomers in plasma after single oral dose of racemic valnoctamide to epileptic patients. The note with it: for CL/F / Cmax / MRT / tmax / t½: single oral 400 mg racemic VCD. Type of data set: in vivo, human. As for the experimental part: (§1) Patients Six epileptic patients (four men and two women aged 23-35 years, with a body weight of 56-85 kg) were studied. All had been receiving a constant carbamazepine dose (800-1200 mg/day) for at least three months. One patient was also receiving phenytoin (250 mg/day) and a second patient phenobarbital (150 mg/day). Each patient received add-on VCD for eight consecutive days at a dosage of 400 mg on day 1 (single dose day), followed by 200 mg three times daily (tid) for seven days. On the last day, only the morning and the midday doses were administered. Blood samples for plasma VCD levels were collected at 0, 0.25, 0.5, 1, 1.5, 2, 3, 4, 5, 6, 8, 10, 12 and 24 hours after the first and the last morning dose. Additional samples were taken at times 0, 0.5, 1, and 2 hours after the morning dose on the last treatment day.
(§2) Plasma Handling and Analytical Assays Plasma samples were separated immediately by centrifugation at 2,000 g for 10 minutes and stored at −20° C. until assaying (VCD is stable at −20° C.). The VCD plasma samples were analyzed by a gas chromatograph (HP 5890 series II)-mass spectrometer (HP 5989A)-GC-MS data system equipped with chiral capillary column. The mass spectrometer was operated in E1 mode at 70eV, the source temperature of the MS was maintained at 200° C. and the quadruple at 100° C. Mass units and their relative abundance were calibrated with perfluorotributylamine (PFTBA). Spectra were collected in the range of […], and the chiral analysis started 18 minutes after injection. Gas chromatograph (GC) oven temperature programming conditions were as follows: 50° C. for 1 minute, then increasing at a rate of 8° C./minute until 100° C., holding for a minute then 4° C./minute until reaching a final temperature of 250° C. The injector temperature is 240° C. and the GC-MS transfer line temperature is 250° C. Inlet pressure is 5 psi with a linear flow rate 20 cm/second. Helium was used as the carrier gas. Chromatographic resolution of the VCD stereoisomers was accomplished by a direct separation on a chiral stationary phase (CSP) column. The CSP consisted of a Chirasil-γ-Dex (octakis (3-O-butanoyl-2,6-di-o-pentyl)-γ-cyclodextrin chemically linked via a 6-mono-octamethylene spacer to a dimethylpolysiloxane. The 0.25 μm Chirasil-γ-Dex was coated on a 25 m×250 μm (id) fused silica capillary column. This CSP of a cyclodextin derivative allows complete baseline resolution of the four stereoisomers (α=1.04, Rs=2.0-2.4) in 24 minutes as depicted in FIG. 2. Intra and inter-day variability in the retention times of the four VCD stereoisomers was less than 10%. A calibration curve was established by spiking drug-free plasma samples with known amounts of racemic VCD at a concentration range of 0.2 mg/L to 8 mg/L (or 0.05 mg/L to 2 mg/L of each of the four VCD stereoisomers).
(§3) Pharmacokinetic and Statistical Analysis Pharmacokinetic parameters were calculated by noncompartmental analysis according to statistical moment theory. Peak plasma concentrations (Cmax) and peak times (tmax) were derived directly from the measured values. The linear terminal slopes (λ) of the log-concentration of each VCD stereoisomer versus time curves were calculated by the peeling procedure. Half life (t½) values were calculated as 0.693/λ. Areas under the plasma concentration versus time curve (AUC), after single dosing, were calculated by the trapezoidal rule with extrapolation to infinity by dividing the last measured concentration by the terminal slope. During repeated administration AUC was calculated over the last two dosing intervals by using the trapezoidal rule. Mean residence time (MRT) was calculated after single dosing as AUMC/AUC, in which AUMC is the area under the concentration×time product versus time curve from zero to infinity. Following single dosing, oral clearance (CL/F, in which F is the oral availability) and apparent volume of distribution at steady state (Vss/F) were calculated as Dose/AUC and as MRT×CL/F, respectively. […]

Data set [2] in a line: Pharmacokinetics of VCD stereoisomers in plasma after repeated oral dosing of racemic valnoctamide to epileptic patients. The data set is classed as in vivo, human. The settings on record: repeated oral racemic VCD 200 mg tid, last day. As for the experimental part:
as §1, §2, §3

Data set [3] can be described thus: Pharmacokinetics of VCD stereoisomers in plasma after single oral dose of racemic valnoctamide to healthy subjects. The data set is classed as in vivo, human. As to the method: Healthy Subjects Seven healthy male volunteers, aged 20-31 years, weighing 61 to 85 kg, received 2×200 mg valnoctamide tablets (Nirvanil@) at 08:00 hours after an overnight fast. Venous blood samples were taken through an indwelling catheter 0, 0.5, 1, 2, 3, 4, 5, 6, 8, 10, 12 and 24 hours after dosing. Food was witheld for 4 hours after dosing.
as §2
Pharmacokinetic and Statistical Analysis Pharmacokinetic parameters were calculated by noncompartmental analysis according to statistical moment theory. Peak plasma concentrations (Cmax) and peak times (tmax) were derived directly from the measured values. The linear terminal slopes (λ) of the log-concentration of each VCD stereoisomer versus time curves were calculated by the peeling procedure. Half life (t½) values were calculated as 0.693/λ. Areas under the plasma concentration versus time curve (AUC), after single dosing, were calculated by the trapezoidal rule with extrapolation to infinity by dividing the last measured concentration by the terminal slope. During repeated administration AUC was calculated over the last two dosing intervals by using the trapezoidal rule. Mean residence time (MRT) was calculated after single dosing as AUMC/AUC, in which AUMC is the area under the concentration×time product versus time curve from zero to infinity. Following single dosing, oral clearance (CL/F, in which F is the oral availability) and apparent volume of distribution at steady state (Vss/F) were calculated as Dose/AUC and as MRT×CL/F, respectively. Following repeated dosing, CL/F was calculated from the quotient of the dose (200 mg) and the AUC obtained during one dosing interval (defined as one-half of the AUC calculated over two consecutive dosing intervals). Comparison of the pharmacokinetic parameters of all four VCD stereoisomers was made by ANOVA.

For data set [4] the following is noted: animal models; cited from earlier work.
The conditions of data set [5]: in animals; cited from earlier work.
In a further data set the target is T1, epoxide hydrolase (Homo sapiens, UniProt P07099).
T1 construct: decreased clearance of CBZ-E in patients; host or cells: patients in vivo (endogenous enzyme)
T1 sequence (P07099 1-455): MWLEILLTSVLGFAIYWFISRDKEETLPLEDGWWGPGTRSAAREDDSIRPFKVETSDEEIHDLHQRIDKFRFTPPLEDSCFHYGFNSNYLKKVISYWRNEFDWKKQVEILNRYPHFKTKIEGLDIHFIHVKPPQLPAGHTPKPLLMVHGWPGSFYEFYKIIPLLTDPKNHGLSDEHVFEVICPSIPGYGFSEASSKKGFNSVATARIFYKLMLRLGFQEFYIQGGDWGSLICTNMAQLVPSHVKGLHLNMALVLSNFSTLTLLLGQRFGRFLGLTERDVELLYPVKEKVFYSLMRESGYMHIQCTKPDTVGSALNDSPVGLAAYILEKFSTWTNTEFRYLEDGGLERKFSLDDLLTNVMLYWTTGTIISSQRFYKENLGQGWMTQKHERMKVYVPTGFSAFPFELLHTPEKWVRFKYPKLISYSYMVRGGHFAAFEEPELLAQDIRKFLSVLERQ
The note with it: racemic VCD; cited from earlier work.

The conditions of data set [6]: in vivo; cited from earlier work.
The mark [7] stands for this setting: Mean ± SD of six epileptic patients.
Where [8] appears, read: individual epileptic patients on carbamazepine.
Setting [9] is: Mean ± SD of seven healthy subjects, single oral 400 mg racemic VCD.
Setting [10] is: individual healthy subjects, single oral 400 mg racemic VCD.

“And” between values parts separate entries of the source, which are not always exact repeats. Identical values can stand only once.

For orientation: CL/F means clearance divided by bioavailability, as obtained after extravascular dosing. The term Cmax denotes the peak of the concentration-time curve. Usually MRT stands for a mean duration of stay, worked out from the concentration-time curve. What is called t½ is how long it takes for the measured level to halve. Lower therefore signals fast loss. Consider `CCC(C)C(CC)C(N)=O` (single isomer, unassigned; stereoisomer c) [Stereoisomer C], for which the CL/F is 39 ± 8 L/h in data set [1] (setting [7]); 50 L/h and 31 L/h and 44 L/h and 38 L/h and 28 L/h and 41 L/h in data set [1] (setting [8]); 27 ± 5 L/h in data set [2] (setting [7]); 26 L/h and 23 L/h (2×) and 24 L/h and 36 L/h and 28 L/h in data set [2] (individual epileptic patients); 4.3 ± 0.4 L/h in data set [3] (setting [9]); 4.0 L/h and 5.1 L/h and 4.3 L/h and 4.1 L/h (2×) and 4.6 L/h and 3.9 L/h in data set [3] (setting [10]). For the same molecule, the Cmax in data set [1] (setting [7]) was 700 ± 120 ng/mL; in data set [1] (setting [8]), 550 ng/mL and 820 ng/mL and 560 ng/mL and 760 ng/mL and 800 ng/mL and 700 ng/mL; in data set [2] (setting [7]) it was 800 ± 200 ng/mL; in data set [2] (individual epileptic patients), 810 ng/mL and 900 ng/mL and 620 ng/mL and 700 ng/mL and 600 ng/mL and 1000 ng/mL; in data set [3] (setting [9]) it was 1.6 ± 0.2 mg/L; in data set [3] (setting [10]), 1.8 mg/L (2×) and 1.4 mg/L and 1.7 mg/L (2×) and 1.6 mg/L and 1.5 mg/L. Moreover, the MRT in data set [1] (setting [7]) was 4.8 ± 0.4 h; in data set [1] (setting [8]), 4.4 h and 4.8 h (2×) and 4.2 h and 5.4 h and 5.0 h; in data set [3] (setting [9]) it was 15 ± 3 h; in data set [3] (setting [10]), 12 h (2×) and 18 h (2×) and 14 h and 16 h and 13 h. For the same molecule, the tmax in data set [1] (setting [7]) is 0.83 ± 0.5 h; in data set [1] (setting [8]) it was 1.5 h (2×) and 0.5 h (4×); in data set [2] (setting [7]) it was 1.4 ± 0.3 h; in data set [2] (individual epileptic patients) it was 2.0 h and 1.5 h (3×) and 1.0 h and 1.25 h; in data set [3] (setting [9]), 0.7 ± 0.3 h; in data set [3] (setting [10]) it was 1 h (3×) and 0.5 h (4×). In addition, the t½ is 3.3 ± 0.5 h in data set [1] (setting [7]); 2.8 h and 3.4 h and 2.6 h and 3.7 h (2×) and 3.5 h in data set [1] (setting [8]); 2.9 ± 0.9 h in data set [2] (setting [7]); 2.2 h and 3.0 h and 4.1 h (2×) and 2.3 h and 5.0 h in data set [2] (individual epileptic patients, last dosing interval); 10.3 ± 1.9 h in data set [3] (setting [9]); “approximately 10 h” in data set [3] (Mean ± SD of seven healthy subjects, single oral 400 mg racemic VCD, listed as C). Moreover, the t½ in data set [3] (individual healthy subjects, single oral 400 mg racemic VCD (Nirvanil), stereoisomer in plasma) is 8.4 h and 13 h and 8.0 h and 10 h and 11.1 h and 9.2 h and 12.4 h. Besides, in data set [1] (epileptic patients), the half lives entry is reported as “about 3 h”.

Regarding `CCCC(CCC)C(N)=O` [VPD, Valpromide], in data set [4], the “anticonvulsant potency relative to VPA” value is listed as “three times more potent”. Besides, the teratogenicity result in data set [5] is given as “has not been found to be teratogenic”.

Consider `CCC(C)C(CC)C(N)=O` (racemic) [VCD, 2-ethyl-3-methyl pentanamide], for which the “inhibition of the enzyme epoxide hydrolase” value on epoxide hydrolase is given as “inhibitor of the enzyme epoxide hydrolase”. Also, the “anticonvulsant potency relative to VPA” value in data set [4] is on record as “three times more potent”. Moreover, the “half-life relative to that of VPD” value in data set [6] is listed as “ten times higher”.

(Values after patent US6417399B1, “Amelioration of neurological disorders by the administration of (2R),(3S), and/or (2S),3(S) stereoisomers of valnoctamide” (Yissum Research Development Company of the Hebrew …, priority 1997, dated 2002).)
